Entries after “also recorded” stand apart in the source; their conditions may differ. Ends that are not written are not given here.
Experiments:
Assay type in all cases: cell-based, Human
HaCaT keratinocyte cells = assay: MTT assay, viability of HaCaT keratinocyte cells; conditions: 50 μg/ml peptide
Description: (§1) Human keratinocyte HaCaT and skin fibroblast CCD-966SK cells were cultured in Dulbecco's Modified Eagle Medium (DMEM) containing 10% (v/v) FBS and 1% (v/v) antibiotics in 5% CO2 at 37° C.
(§2) HaCaT keratinocyte cells (3×10^3, each cell line) in 100 μl complete DMEM were seeded in 96-well plates with or without 50 μg/ml Peptide NO. 9, respectively. Ten microliters of 5 mg/ml 3-(4,5-dimethyl-2-thiazolyl)-2,5-diphenyl-2H-tetrazolium bromide solution (MTT; Sigma) was added to each well for the indicated times and incubated at 37° C. for 3 hours, after which 100 μl 10% SDS in 0.01 N HCl was added to dissolve the MTT formazan crystals. The resultant optical density was measured spectrophotometrically at dual wavelengths, 550 and 630 nm.

HaCaT cells = assay: Transwell migration assay, HaCaT keratinocyte cells; conditions: 50 μg/ml peptide, 24-hour culture, P<0.05
Description: as §1
(§3) HaCaT cells (5×10^4) or CCD-966SK cells (5×10^3) in 0.25 ml serum-free DMEM were seeded into the upper chamber with an 8-μm pore size membrane (Corning, USA) and 0.5 ml serum free DMEM with or without 50 μg/ml Peptide NO. 9 were loaded to the lower chamber in 24-well culture plate. After 24 hours incubation, cells were fixed and stained with 0.5% (w/v) crystal violet (Sigma) containing 20% (v/v) methanol. The number of migrated cells from 5 random fields was counted under the microscope. Results obtained were analyzed by student's t-test and graphed as mean±SD.

CCD-966SK cells = assay: Transwell migration assay, CCD-966SK fibroblast cells; conditions: 50 μg/ml peptide, 24-hour culture, P<0.01
Description: as §1, §3

CCD966SK cells = assay: MTT assay, viability of CCD966SK cells; conditions: 50 μg/ml peptide
Description: as §1, §2

HTSTEAK [Peptide NO. 9]
viability of HaCaT keratinocyte cells (HaCaT keratinocyte cells; 24-hour culture): did not significantly affect viability of HaCaT cells | viability of HaCaT keratinocyte cells (HaCaT keratinocyte cells; 48-hour culture): did not significantly affect viability of HaCaT cells | viability of HaCaT keratinocyte cells (HaCaT keratinocyte cells; 72-hour culture): did not significantly affect viability of HaCaT cells | HaCaT keratinocyte cell migration (HaCaT cells): enhanced HaCaT keratinocyte cell migration; also recorded: significant efficacy in enhancing HaCaT keratinocyte cell migration; also recorded: effect in enhancement of keratinocyte cell migration of HaCaT cells | CCD966SK fibroblast cell migration (CCD-966SK cells): enhanced CCD966SK fibroblast cell migration; also recorded: significant efficacy in enhancing HaCaT CCD966SK fibroblast cell migration | viability of CCD966SK cells (CCD966SK cells; 24 hours): did not significantly affect viability of CCD966SK cells | viability of CCD966SK cells (CCD966SK cells; 48 hours): did not significantly affect viability of CCD966SK cells | viability of CCD966SK cells (CCD966SK cells; 72 hours): did not significantly affect viability of CCD966SK cells
